The values that follow come from patent publication US12492188B2, “1H-benzo[D]imidazole derivatives as TLR9 inhibitors for the treatment of fibrosis” (BRISTOL-MYERS SQUIBB COMPANY, priority 2020, dated 2025).

The structures appear in SMILES notation. Read-outs that look alike come from different tables or passages of the source.

The target of the test is T1, human TLR9 (Homo sapiens, UniProt Q9NR96).
T1 construct: host or cells: HEK-Blue cells (HEK293-derived reporter line)
T1 sequence (Q9NR96 26-1032): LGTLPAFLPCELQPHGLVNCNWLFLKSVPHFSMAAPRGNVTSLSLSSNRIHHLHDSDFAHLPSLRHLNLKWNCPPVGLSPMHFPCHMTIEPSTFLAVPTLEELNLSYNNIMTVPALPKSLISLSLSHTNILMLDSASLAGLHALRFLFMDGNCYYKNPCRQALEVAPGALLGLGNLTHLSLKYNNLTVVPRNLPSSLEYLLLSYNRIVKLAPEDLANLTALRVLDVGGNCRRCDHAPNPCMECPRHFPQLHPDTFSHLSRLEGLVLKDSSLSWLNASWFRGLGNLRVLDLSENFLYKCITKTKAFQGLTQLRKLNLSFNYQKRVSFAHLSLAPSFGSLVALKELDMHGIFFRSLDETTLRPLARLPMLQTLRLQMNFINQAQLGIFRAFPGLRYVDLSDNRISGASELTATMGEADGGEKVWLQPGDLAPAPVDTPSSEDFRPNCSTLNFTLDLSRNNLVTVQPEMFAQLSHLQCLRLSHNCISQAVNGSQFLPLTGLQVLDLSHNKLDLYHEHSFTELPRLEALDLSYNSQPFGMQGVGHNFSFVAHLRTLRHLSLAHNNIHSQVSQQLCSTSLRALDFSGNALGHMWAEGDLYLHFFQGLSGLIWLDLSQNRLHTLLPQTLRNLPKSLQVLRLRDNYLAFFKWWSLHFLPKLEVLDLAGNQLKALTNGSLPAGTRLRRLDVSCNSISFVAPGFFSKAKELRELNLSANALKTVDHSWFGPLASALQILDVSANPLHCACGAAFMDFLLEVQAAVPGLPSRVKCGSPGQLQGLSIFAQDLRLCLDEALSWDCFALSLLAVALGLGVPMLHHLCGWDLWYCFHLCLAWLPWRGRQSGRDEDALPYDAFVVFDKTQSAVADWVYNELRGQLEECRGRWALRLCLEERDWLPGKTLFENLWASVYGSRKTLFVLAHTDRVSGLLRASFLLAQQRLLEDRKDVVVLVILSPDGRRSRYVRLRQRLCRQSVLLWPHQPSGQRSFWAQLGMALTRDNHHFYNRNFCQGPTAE
The test can be described thus: TLR9 inhibition reporter assay (HEK-Blue cells, secreted embryonic alkaline phosphatase reporter). It counts as cell-based. The procedure: TLR7/8/9 Inhibition Reporter Assays
HEK-Blue™-cells (Invivogen) overexpressing human TLR7, TLR8 or TLR9 receptors were used for screening inhibitors of these receptors using an inducible SLAP (secreted embryonic alkaline phosphatase) reporter gene under the control of the […] minimal promoter fused to five NF-κB and AP-1-binding sites. Briefly, cells are seeded into Greiner 384 well plates (15000 cells per well for TLR7, 20,000 for TLR8 and 25,000 for TLR9) and then treated with test compounds in DMSO to yield a final dose response concentration range of 0.05 nM-50 μM. After a 30 minute compound pre-treatment at room temperature, the cells are then stimulated with a TLR7 ligand (gardiquimod at a final concentration of 7.5 μM), TLR8 ligand (R848 at a final concentration of 15.9 μM) or TLR9 ligand (ODN2006 at a final concentration of 5 nM) to activate NF-κB and AP-1 which induce the production of SLAP. After a 22 hour incubation at 37° C., […], SLAP levels are determined with the addition of HEK-Blue™ Detection reagent (Invivogen), a cell culture medium that allows for detection of SLAP, according to manufacturer's specifications. The percent inhibition is determined as the […] in the HEK-Blue signal present in wells treated with agonist plus DMSO alone compared to wells treated with a known inhibitor.
On the technique in general: In a reporter assay the amount or activity of a reporter protein is the signal.

[1] abbreviates: HEK-Blue cells overexpressing human TLR9, stimulated with ODN2006 5 nM, 22 hour incubation, reporter readout.
[2] abbreviates: HEK-Blue cells overexpressing human TLR9, stimulated with ODN2006 5 nM, read-out: TLR 9 IC50.

What is called IC50 is the midpoint of a concentration-inhibition curve. As for `Cc1cc(C2CCN(C3CCN(CC(C)C)CC3)CC2)cc2[nH]c(-c3ccc(S(=O)(=O)c4ccccc4)cc3)nc12` [Example 75, 6-(1′-isobutyl-[1,4′-bipiperidin]-4-yl)-4-methyl-2-(4-(phenylsulfonyl)phenyl)-1H-benzo[d]imidazole tris(2,2,2-trifluoroacetate)], the IC50 reads like this: under setting [1], 63 nM; under setting [2], 63 nM.

With `Cc1cc(C2CCN(C3CCN(CC(C)C)CC3)CC2)cc2[nH]c(-c3cccc(OC(F)F)c3)nc12` [Example 76, 2-(3-(difluoromethoxy)phenyl)-6-(1′-isobutyl-[1,4′-bipiperidin]-4-yl)-4-methyl-1H-benzo[d]imidazole], the half-inhibitory concentration (IC50) runs as follows: under setting [1], 260 nM; under setting [2], 257 nM.

For the compound `Cc1cc(C2CCN(C3CCN(CC(C)C)CC3)CC2)cc2[nH]c(-c3cccc4ncsc34)nc12` [Example 77, 7-(6-(1′-isobutyl-[1,4′-bipiperidin]-4-yl)-4-methyl-1H-benzo[d]imidazol-2-yl)benzo[d]thiazole], the IC50 runs as follows: under setting [1], 31 nM; under setting [2], 31 nM. As to `Cc1cc(C2CCN(C3CCN(CC(C)C)CC3)CC2)cc2[nH]c(-c3ccc(OC(F)F)cc3)nc12` [Example 78, 2-(4-(difluoromethoxy)phenyl)-6-(1′-isobutyl-[1,4′-bipiperidin]-4-yl)-4-methyl-1H-benzo[d]imidazole], the IC50 under setting [1] stood at 270 nM and the IC50 under setting [2] is 267 nM.

Take `Cc1cc(C2CCN(C3CCN(CC(C)C)CC3)CC2)cc2[nH]c(-c3nccs3)nc12` [Example 79, 2-(6-(1′-isobutyl-[1,4′-bipiperidin]-4-yl)-4-methyl-1H-benzo[d]imidazol-2-yl)thiazole]: the IC50 is, setting by setting: under setting [1], 110 nM; under setting [2], 111 nM. On the same counts, the results for `Cc1cc(C2CCN(C3CCN(CC(C)C)CC3)CC2)cc2[nH]c(-c3ccccc3OC(F)(F)F)nc12` [Example 80, 6-(1′-isobutyl-[1,4′-bipiperidin]-4-yl)-4-methyl-2-(2-(trifluoromethoxy)phenyl)-1H-benzo[d]imidazole tris(2,2,2-trifluoroacetate)] are 360 nM and 358 nM. Turning to `Cc1cc(C2CCN(C3CCN(CC(C)C)CC3)CC2)cc2[nH]c(-c3cnc4[nH]ccc4c3)nc12` [Example 81, 6-(1′-isobutyl-[1,4′-bipiperidin]-4-yl)-4-methyl-2-(1H-pyrrolo[2,3-b]pyridin-5-yl)-1H-benzo[d]imidazole], the IC50 reads like this: under setting [1], 49 nM; under setting [2], 49 nM. `Cc1cc(C2CCN(C3CCN(CC(C)C)CC3)CC2)cc2[nH]c(-c3cccc4cccnc34)nc12` [Example 82, 8-(6-(1′-isobutyl-[1,4′-bipiperidin]-4-yl)-4-methyl-1H-benzo[d]imidazol-2-yl)quinoline]: the IC50 reads like this: under setting [1], 32 nM; under setting [2], 32 nM. As to `COc1ccc(-c2nc3c(F)cc(C4CCN(C5CCN(C(C)C)CC5)CC4)cc3[nH]2)cc1OC` [Example 83, 2-(3,4-dimethoxyphenyl)-4-fluoro-6-(1′-isopropyl-[1,4′-bipiperidin]-4-yl)-1H-benzo[d]imidazole], the IC50 under setting [1] worked out at 210 nM.

With `Cc1c(C2CCN(C3CCN(C(C)C)CC3)CC2)ccc2nc(-c3ccc(S(C)(=O)=O)cc3)n(C)c12` [Example 119, 6-(1′-isopropyl-[1,4′-bipiperidin]-4-yl)-1,7-dimethyl-2-(4-(methylsulfonyl)phenyl)-1H-benzo[d]imidazole], the IC50 is 1100 nM under setting [1] and 1090 nM under setting [2]. On the same counts, the results for `Cc1cc2nc(-c3ccc(S(C)(=O)=O)cc3)n(C)c2cc1C1CCN(C2CCN(C(C)C)CC2)CC1` [Example 120, 6-(1′-isopropyl-[1,4′-bipiperidin]-4-yl)-1,5-dimethyl-2-(4-(methylsulfonyl)phenyl)-1H-benzo[d]imidazole] are 180 nM and 178 nM. With `COc1ccc(-c2nc3c(F)cc(C4CCN(C5CCN(CC(C)C)CC5)CC4)cc3[nH]2)cc1OC` [Example 127, 2-(3,4-dimethoxyphenyl)-4-fluoro-6-(1′-isobutyl-[1,4′-bipiperidin]-4-yl)-1H-benzo[d]imidazole], the IC50 worked out at 31 nM. Moreover, the IC50 under setting [2] was 31 nM. The compound `COc1ccc(-c2nc3c(F)cc(C4CCN(C5CCN(C6CC6)CC5)CC4)cc3[nH]2)cc1OC` [Example 128, 6-(1′-cyclopropyl-[1,4′-bipiperidin]-4-yl)-2-(3,4-dimethoxyphenyl)-4-fluoro-1H-benzo[d]imidazole] displayed an IC50 of 270 nM. Besides, the IC50 under setting [2] was 268 nM. On the same counts, the results for `COc1ccc(-c2nc3cc(F)c(C4CCN(C5CCN(C(C)C)CC5)CC4)cc3[nH]2)cc1OC` [Example 129, 2-(3,4-dimethoxyphenyl)-5-fluoro-6-(1′-isopropyl-[1,4′-bipiperidin]-4-yl)-1H-benzo[d]imidazole] are 190 nM and 185 nM. On the same counts, the results for `COc1ccc(-c2nc3cc(F)c(C4CCN(C5CCN(CC(C)C)CC5)CC4)cc3[nH]2)cc1OC` [Example 130, 2-(3,4-dimethoxyphenyl)-5-fluoro-6-(1′-isobutyl-[1,4′-bipiperidin]-4-yl)-1H-benzo[d]imidazole] are 22 nM and 22 nM. On the same counts, the results for `COc1ccc(-c2nc3cc(F)c(C4CCN(C5CCN(C6CC6)CC5)CC4)cc3[nH]2)cc1OC` [Example 131, 6-(1′-cyclopropyl-[1,4′-bipiperidin]-4-yl)-2-(3,4-dimethoxyphenyl)-5-fluoro-1H-benzo[d]imidazole] are 59 nM and 59 nM. Compound `COc1ccc(-c2nc3ccc(C4CCN(C5CCN(C(C)C)CC5)CC4)c(F)c3[nH]2)cc1OC` [Example 132, 2-(3,4-dimethoxyphenyl)-7-fluoro-6-(1′-isopropyl-[1,4′-bipiperidin]-4-yl)-1H-benzo[d]imidazole] yielded a concentration for half-maximal inhibition (IC50) of 200 nM. Also, the IC50 under setting [2] came to 202 nM. On the same counts, the results for `COc1ccc(-c2nc3ccc(C4CCN(C5CCN(CC(C)C)CC5)CC4)c(F)c3[nH]2)cc1OC` [Example 133, 2-(3,4-dimethoxyphenyl)-7-fluoro-6-(1′-isobutyl-[1,4′-bipiperidin]-4-yl)-1H-benzo[d]imidazole] are 2200 nM and 2200 nM.

Take `Cc1cc(C2CCN(C3CCCN(C(C)C)CC3)CC2)cc2c1nc(-c1ccc(S(C)(=O)=O)cc1)n2C` (stereo not shown) [Example 134, 6-(1-(1-isopropylazepan-4-yl)piperidin-4-yl)-1,4-dimethyl-2-(4-(methylsulfonyl)phenyl)-1H-benzo[d]imidazole]: the IC50 worked out at 21 nM. Under setting [2], the IC50 is 20 nM.

As for `Cc1cc(C2CCN(C3CCCN(C4CCC4)CC3)CC2)cc2c1nc(-c1ccc(S(C)(=O)=O)cc1)n2C` (stereo not shown) [Example 135, 6-(1-(1-cyclobutylazepan-4-yl)piperidin-4-yl)-1,4-dimethyl-2-(4-(methylsulfonyl)phenyl)-1H-benzo[d]imidazole], the IC50 turned out to be 23 nM. In addition, under setting [2], the IC50 came out at 23 nM. Take `Cc1cc(C2CCN(C3CCCN(CC(C)C)CC3)CC2)cc2c1nc(-c1ccc(S(C)(=O)=O)cc1)n2C` (stereo not shown) [Example 136, 6-(1-(1-isobutylazepan-4-yl)piperidin-4-yl)-1,4-dimethyl-2-(4-(methylsulfonyl)phenyl)-1H-benzo[d]imidazole]: the IC50 was found to be 140 nM. Under setting [2], the IC50 came out at 136 nM.

Compound `Cc1cc(C2CCN(C3CCCN(CC4CC4)CC3)CC2)cc2c1nc(-c1ccc(S(C)(=O)=O)cc1)n2C` (stereo not shown) [Example 137, 6-(1-(1-(cyclopropylmethyl)azepan-4-yl)piperidin-4-yl)-1,4-dimethyl-2-(4-(methylsulfonyl)phenyl)-1H-benzo[d]imidazole] showed an IC50 of 19 nM. The IC50 under setting [2] was 19 nM.
